From patent US20260176249A1, “PROTEIN KINASE INHIBITOR, PREPARATION METHOD THEREFOR, AND APPLICATION THEREOF” (SHANDONG LUYE PHARMACEUTICAL CO., LTD., priority 2021, published 2026)

What was measured:
[1] = Permeability and efflux transporter substrate evaluation in Caco-2 cells; format: in vitro ADME; design: Papp A→B at 120 min / Papp B→A at 120 min / efflux ratio at 120 min / Papp at 120 min: dose or concentration left out as unconfirmed; conditions: human; for Papp at 120 min: Caco-2, pH 7.4, read-out: Classification Permeability; for Papp A→B at 120 min / Papp B→A at 120 min: pH 7.4, pH 7.40; for Papp A→B at 120 min: Caco-2, apical to basolateral; for Papp B→A at 120 min: Caco-2, basolateral to apical
Protocol: (§1) The cells were cultured in a carbon dioxide incubator for 21-28 days before being used for transport experiments. During this period, the culture medium was changed every four to five days.
(§2) This project uses Hank's balanced salt buffer (pH 7.40±0.05) containing 10 mM HEPES as the transport buffer. The culture medium was removed from the culture plate and the cells were washed twice with preheated transport buffer (approximately 75 μL and 40 mL of transport buffer for each apical well and basolateral receiver plate respectively). The donor solution and receiver solution were added to the corresponding cell plate wells (75 and 250 μL for each apical and basolateral well respectively), and the bidirectional transport experiment was started (apical to basolateral (A-B) and basolateral to apical (B-A)). The test concentration of the test substance was […], and two replicate wells were made for each dosing concentration. The test concentration of Digoxin was […], with dosing bidirectionally; the test concentrations of nadolol and metoprolol were both […], and they were dosed in one direction (A-B direction), and two replicate wells were made for each of the three control compounds.
(§3) The initial donor solution is the TO sample. After adding the sample, it was mixed with the transport buffer and stop solution in a certain proportion.
(§4) All samples were vortexed, and then centrifuged at 3220×g for 20 min at 20° C. A proper volume of supernatant was transferred to a sample assay plate, and the sample was stored at 2-8° C. if it was not analyzed immediately after the plate was sealed, and LC MS/MS method was used for analysis.
(§5) The Lucifer Yellow Rejection Assay was used to test the integrity of the Caco-2 cell layer.
(§6) The following formulas were used to calculate the apparent permeability coefficient (Papp, cm/s), efflux ratio (ER), and solution recovery (%) (% Solution Recovery).
(§7) [formula] [formula] [formula] • VR is the volume of the receiver side solution (side A is 0.075 mL, side B is 0.25 mL); Area is the relative surface area of the cell monolayer (0.0804 cm^2); Time is the incubation time (7200 s); C0 is the initial concentration (nM) of the test substance at the donor side or the peak area ratio of the control compound; VD is the volume of the donor side (side A is 0.075 mL, side B is 0.25 mL); CD and CR are the final concentration (nM) of the test substance at the donor side and the receiver side respectively or the peak area ratio of the control compound; • Lucifer yellow transmittance rate (% Lucifer Yellow) is calculated using the following formula:
(§8) [formula] • RFUApical and RFUBasolateral are the relative fluorescence intensity of lucifer yellow at the apical and basolateral sides respectively. VApical and VBasolateral are the sample loading volumes at the apical and basolateral sides respectively (0.075 and 0.25 mL respectively).

Caco-2 cells = experiment: as above; format: in vitro ADME; design: Papp A→B at 120 min / Papp B→A at 120 min / efflux ratio at 120 min / Papp at 120 min: dose or concentration left out as unconfirmed; conditions: Caco-2
Protocol: as §1, §2, §3, §4, §5, §6, §7, §8

HCT116 cells [2] = experiment: In vivo pharmacodynamic study of compound 1 in HCT116 tumor-bearing mice; design: species or system Balb/C Nude mice; conditions: 20 mg/kg once a day by gavage, vs sham group
From the text: Balb/C Nude mice, SPF grade, male, weighing 18-20 g, were purchased from Jiangsu Gempharmatech Co., Ltd.
HCT116 cells were purchased from ATCC.
Matrigel Matrix, Cat. No. 354248, was purchased from Becton, Dickinson and Company.
Kolliphor® HS 15, Cat. No. 42966, was purchased from Sigma-Aldrich.
(§9) a. Establishment of tumor-bearing mouse model: HCT116 cells in the logarithmic growth phase were taken and cultured, the cells were collected and counted, and then subcutaneously inoculated into Balb/C Nude mice at 1×10^6/mouse. The tumor volume and body weight of the mice were measured regularly. 7 days after inoculation, mice with tumor volume of 150 mm3 were randomly divided into groups and treated with corresponding drugs.
b. […] The administration was performed once a day by gavage for 21 consecutive days, and the tumor volume and body weight of the mice were measured regularly.
(§10) 3. Data processing: All data were organized in EXCEL, and One-way ANOVA analysis and drawing were performed using GraphPad Prism 8.0 software. Statistical significance was achieved when p<0.05.

[3] = Metabolic stability in mouse liver microsomes; format: in vitro ADME
Protocol: (§11) a. Preparation of phosphate buffer: The phosphate buffer powder was dissolved in 100 mL of pure water to prepare a phosphate buffer solution with a pH of 7.4 and a concentration of 100 mM, which was stored in a 4° C. refrigerator for later use.
(§12) b. All samples as well as the reference testosterone were dissolved in DMSO to obtain a 10 mM stock solution. The 10 mM stock solution was diluted to 100 μM with acetonitrile to obtain a working solution for later use.
(§13) c. Preparation of liver microsome working solution: Each of the mouse, rat and human liver microsome stock solutions (at concentration of 20 mg/mL) was taken and diluted to 0.56 mg/mL with 100 mM phosphate buffer solution to obtain the liver microsome working solution.
(§14) d. Preparation of solution: An appropriate amount of MgCl2 was weighed and used to prepare a MgCl2 solution at a concentration of 60 mM using 100 mM phosphate buffer solution. An appropriate amount of NADPH was weighed and used to prepare a NADPH solution at a concentration of 20 mM using 100 mM phosphate buffer solution. An equal volume of 60 mM MgCl2 solution was added to prepare an NADPH working solution containing 10 mM NADPH and 30 mM MgCl2. An acetonitrile solution containing 20 ng/mL tolbutamide was prepared as the stop solution.
(§15) e. Liver microsome incubation: 2 μL of each compound and the positive drug testosterone working solution were added to 178 μL of liver microsome working solution (0.56 mg/mL), mixed gently, and pre-incubated in a vibrating constant temperature water bath pot at 37° C. for 10 min. After adding 20 μL of NADPH working solution, the mixture was placed in a vibrating constant temperature water bath pot at 37° C. and timed incubation was started for 5, 10, 20, 30 and 60 min.
(§16) f. Stopping reaction: After the corresponding time of incubation, 400 μL of stop solution was added to stop the reaction, and then the sample was immediately shaken for 1 min. The sample was centrifuged at 13500 rpm for 10 min at 10° C. After centrifugation, the supernatant was removed, diluted with water according to the needs of each compound, and analyzed by LC-MS. For the 0-minute sample, the stop solution was first added and mixed evenly with the liver microsomes, and then the NADPH working solution was added. For the negative control sample, 20 μL of 30 mM MgCl2 solution was added instead of the NADPH working solution.
(§17) T1/2 and CLint(mic) were calculated by the following formula.
(§18) [formula] [formula] • CLint(mic)=0.693/T1/2/liver microsomal protein concentration during incubation (mg/mL) • CLint(ver)=CLint(mic)*liver microsomal protein (mg)/liver weight (g)*liver weight to body weight ratio
(§19) Liver microsomal protein (mg)/liver weight (g): the value is 45 in both animal and human species.
(§20) Liver weight to body weight ratio: the parameters for mice, rats and humans are 88, 40 and 20 g/kg respectively.

[4] = Metabolic stability in rat liver microsomes; format: in vitro ADME
Protocol: as §11, §12, §13, §14, §15, §16, §17, §18, §19, §20

[5] = Metabolic stability in human liver microsomes; format: in vitro ADME
Protocol: as §11, §12, §13, §14, §15, §16, §17, §18, §19, §20

HCT116 cells [6] = experiment: In vivo pharmacodynamic study of compound 18 in HCT116 tumor-bearing mice; design: species or system Balb/C Nude mice; conditions: 10 mg/kg once a day by gavage
Protocol: as §9, §10
1. Experiment materials: Same as Test example 5.
a. Establishment of tumor-bearing mouse model: Same as Test example 5.
b. […] The administration was performed once a day by gavage for 7 consecutive days, and the tumor volume and body weight of the mice were measured regularly.
3. Data processing: Same as Test example 5.

In the case of `CN1CCN(c2ccc(OC(F)(F)F)c(Nc3ncc4ccc5c(C(N)=O)nn(CCO)c5c4n3)c2)CC1` [Compound 1], the Papp at 120 min [1] is reported as 0.5 to 2.5 ×10⁻⁶ cm/s, the Papp A→B at 120 min [1] is reported as 0.965 ×10⁻⁶ cm/s and the Papp B→A at 120 min [1] is reported as 20.8 ×10⁻⁶ cm/s. For the same molecule, the “Classification Efflux transporter substrate” value (Caco-2 cells) was “Likely (ERa ≥ 2.00)”, the tumor inhibition rate (HCT116 cells [2]; 11 days) was 82.0% and the tumor inhibition rate (HCT116 cells [2]; 16 days) was 86.5%. It also gave a tumor inhibition rate (HCT116 cells [2]; 21 days) of 88.3%.

Molecule `CN1CCN(c2ccc(OC(F)(F)F)c(Nc3ncc4ccc5c(C(N)=O)nn(CCF)c5c4n3)c2)CC1` [Compound 18] has a Papp at 120 min [1] of 0.5 to 2.5 ×10⁻⁶ cm/s, a Papp A→B at 120 min [1] of 2.03 ×10⁻⁶ cm/s and a Papp B→A at 120 min [1] of 3.36 ×10⁻⁶ cm/s. For the same molecule, the “Classification Efflux transporter substrate” value (Caco-2 cells) was “Very unlikely or not (ERa < 2.00)”, the “60 min remaining amount” value [3] was 4.32% and the Clearance rate [3] was “High”. For the same molecule, the CLint scaled at 1 µM ([3]; mouse, pH 7.4) was 409 mL/min/kg, the half-life at 1 µM ([3]; mouse, pH 7.4) was 13.4 min and the microsomal CLint at 1 µM ([3]; mouse, pH 7.4, read-out: CLint(mic)) was 103 µL/min/mg. For the same molecule, the “60 min remaining amount” value [4] was 2.74%, the Clearance rate [4] was “High” and the CLint scaled at 1 µM ([4]; rat, pH 7.4) was 505 mL/min/kg. For the same molecule, the half-life at 1 µM ([4]; rat, pH 7.4) was 4.94 min, the microsomal CLint at 1 µM ([4]; rat, pH 7.4, read-out: CLint(mic)) was 281 µL/min/mg and the “60 min remaining amount” value [5] was 7.83%. For the same molecule, the Clearance rate [5] was “High”, the CLint scaled at 1 µM ([5]; human, pH 7.4) was 78.7 mL/min/kg and the half-life at 1 µM ([5]; human, pH 7.4) was 15.9 min. The microsomal CLint at 1 µM ([5]; human, pH 7.4, read-out: CLint(mic)) was 87.4 µL/min/mg, the “body weight decrease compared to before administration” value (HCT116 cells [6]; 5 days) was 7.6% and the “body weight decrease compared to before administration” value (HCT116 cells [6]; 7 days) was 16.1%. It also gave a tumor inhibition rate (HCT116 cells [6]; 7 days, vs control group) of 70.9%.
